The values below are quoted from earlier work in publication PMC4358631 (Journal of Medicinal Chemistry, 2014).

This series deals with α3β4 nAChR (Rattus norvegicus, UniProt P04757+P12392). The conditions noted are these: compounds bind to the central lumen of the receptor.
Chain of α3β4 nAChR (P04757 26-499): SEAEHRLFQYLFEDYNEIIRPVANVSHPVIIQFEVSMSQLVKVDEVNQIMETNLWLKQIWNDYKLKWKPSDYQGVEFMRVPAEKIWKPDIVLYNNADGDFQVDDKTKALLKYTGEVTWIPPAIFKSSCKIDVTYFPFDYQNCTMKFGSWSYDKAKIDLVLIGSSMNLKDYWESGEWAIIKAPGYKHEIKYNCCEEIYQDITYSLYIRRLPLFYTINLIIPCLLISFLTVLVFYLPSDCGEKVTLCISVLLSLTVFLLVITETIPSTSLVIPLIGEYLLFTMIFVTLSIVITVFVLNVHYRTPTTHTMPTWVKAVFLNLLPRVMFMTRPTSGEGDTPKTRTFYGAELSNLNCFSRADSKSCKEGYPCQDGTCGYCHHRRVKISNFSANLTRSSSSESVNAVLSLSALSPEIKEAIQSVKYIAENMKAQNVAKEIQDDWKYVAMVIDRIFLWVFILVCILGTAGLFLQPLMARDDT
Chain of α3β4 nAChR (P12392 22-495 limits assumed): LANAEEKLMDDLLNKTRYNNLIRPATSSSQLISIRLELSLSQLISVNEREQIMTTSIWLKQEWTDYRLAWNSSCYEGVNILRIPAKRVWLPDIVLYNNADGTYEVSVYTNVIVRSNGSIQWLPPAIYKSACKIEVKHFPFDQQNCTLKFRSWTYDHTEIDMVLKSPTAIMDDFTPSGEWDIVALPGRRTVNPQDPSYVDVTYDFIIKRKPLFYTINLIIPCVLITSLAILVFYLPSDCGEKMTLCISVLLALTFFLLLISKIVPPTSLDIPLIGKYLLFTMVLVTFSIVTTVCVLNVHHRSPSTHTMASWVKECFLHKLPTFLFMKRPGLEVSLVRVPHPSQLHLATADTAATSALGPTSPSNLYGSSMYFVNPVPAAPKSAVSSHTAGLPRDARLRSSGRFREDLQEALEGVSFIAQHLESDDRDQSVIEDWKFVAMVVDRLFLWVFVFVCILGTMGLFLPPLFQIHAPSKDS

`COCC[C@H]1CC2CN3CCc4c([nH]c5ccccc45)[C@](C(=O)OC)(C2)[C@H]13` [18-MC, 18-methoxycoronaridine]: the “inhibition of [3H]epibatidine binding” value was “do not inhibit”. `CNC1(C)C2CCC(C2)C1(C)C` (centres unmarked) [mecamylamine]: the “inhibition of [3H]epibatidine binding” value is “do not inhibit”.
